Some test systems named below: HOP-18 NSCLC; SNB-78 CNS; RXF-631 renal; DMS 114 small cell lung; BT-549 breast; HS 578T breast; DU-145 prostate; MDA-MB-435; MDA-N.
Assay in all cases: growth of human tumour cells (NCI), 48 h

We go through 21 compounds from PubChem BioAssay (NCI).

Where “and” joins values, the source holds several entries; their conditions need not be identical. Equal values may be shown once.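 Where inhibition never reached the appropriate level, the endpoint shown equals the highest concentration tested. Otherwise, values were interpolated linearly from a five-concentration, 48-hour dose response in 96-well plates. GI50 marks 50% less growth. Definition used: TGI = concentration required for complete inhibition of growth.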 Where a SMILES comes first, the peptide text is derived from it. [ ]: non-standard residue; d: D form. Phe(4-Cl) = N[CH](Cc1ccc(Cl)cc1)C(=O)O

Take `CC(C)(C)OC(=O)Cc1ccc2c(ccn2Cc2ccccc2)c1`: the TGI with HOP-18 NSCLC, in the assay with SNB-78 CNS, in the assay with RXF-631 renal and in the assay on DMS 114 small cell lung was > 100 µM throughout.
`COC(=O)C1=NC(=S)NC(c2ccccc2)C1c1nc2ccccc2s1` (stereo not drawn): the TGI with HOP-18 NSCLC, in the assay on SNB-78 CNS, in the assay with RXF-631 renal and in the assay with DMS 114 small cell lung was > 100 µM throughout.
As to `CCOC(=O)CN=c1nc(SC)sc2c(C(=O)OCC)nc(Sc3ccccc3)n12`, the TGI with HOP-18 NSCLC, in the assay on RXF-631 renal and in the assay on DMS 114 small cell lung was > 100 µM throughout.
For `COC(=O)c1cccc2cccc(C(=O)Nc3ccc(C)cc3C)c12`, the TGI with HOP-18 NSCLC, with SNB-78 CNS, in the assay on RXF-631 renal and in the assay with DMS 114 small cell lung was > 100 µM throughout.
On to `COc1ccc2c(c1)CCC1C3(CCCC21C)OCCO3` (stereo not drawn), for which the TGI in the assay on HOP-18 NSCLC is 64.8 µM; in the assay with SNB-78 CNS, 73.9 µM; in the assay with RXF-631 renal, > 100 µM.
In the case of `Cc1ccc(N(C(=O)CC(=O)NN)C(=O)c2ccccc2Cl)cc1`, the TGI with HOP-18 NSCLC, with SNB-78 CNS, in the assay with RXF-631 renal and with DMS 114 small cell lung was > 100 µM each time.
Turning to `COc1ccc2c(c1)C=C([N+](=O)[O-])C(C1OC(C)(C)OC1C1COC(C)(C)O1)O2` (stereo not drawn), the TGI was 12.6 µM with BT-549 breast; > 100 µM with HS 578T breast; 29.5 µM with DU-145 prostate; 42 µM in the assay with HOP-18 NSCLC; 11.8 µM in the assay on SNB-78 CNS; 14.8 µM in the assay with MDA-MB-435. The compound also showed a TGI in the assay with DMS 114 small cell lung of 8.55 µM.
`Cc1ccccc1N(CCC#N)C1=NN(C(=O)CC(=O)Nc2ccccc2)C(c2ccccc2)C1` (stereo not drawn): the TGI in the assay with HOP-18 NSCLC, with SNB-78 CNS and in the assay on RXF-631 renal was > 100 µM throughout.
With `O=C(O)CN(c1ccccc1)S(=O)(=O)c1ccccc1[N+](=O)[O-]`, the TGI in the assay on HOP-18 NSCLC and with RXF-631 renal was > 100 µM throughout.
As to `COC(=O)c1cc(Br)c(Br)n1C`, the TGI with HOP-18 NSCLC, in the assay on SNB-78 CNS, with RXF-631 renal and in the assay with DMS 114 small cell lung was > 100 µM each time.
Turning to `CCC1(O)C(=O)OCc2c1cc1n(c2=O)Cc2cc3ccc(C=O)cc3nc2-1` (stereo not drawn), the GI50 was 4.56 µM with BT-549 breast, 27 µM in the assay on HS 578T breast, 3.9 µM in the assay with MDA-N and 5.9 µM in the assay on MDA-MB-435. Also, the TGI was 29.8 µM and 59.6 µM in the assay on BT-549 breast; 50 µM and > 100 µM with HS 578T breast; 3.21 µM and 24.3 µM in the assay on DU-145 prostate; > 100 µM with HOP-18 NSCLC; 98.2 µM in the assay on SNB-78 CNS; 23.7 µM and 36.4 µM with MDA-N. Moreover, the TGI with MDA-MB-435 was 31.2 µM and 35.7 µM; in the assay with RXF-631 renal, 31.7 µM; with DMS 114 small cell lung, 20.5 µM.
Regarding `C=CCCCCCCCCC(=O)NS(=O)(=O)c1ccccc1`, the TGI in the assay on HOP-18 NSCLC, in the assay with SNB-78 CNS, in the assay with RXF-631 renal and in the assay on DMS 114 small cell lung was > 100 µM each time.
Turning to `NC1=NN(c2ccccc2)C(=O)C1C(=O)CCC(=O)Nc1cccc(C(F)(F)F)c1` (stereo not drawn), the TGI in the assay on HOP-18 NSCLC, in the assay with SNB-78 CNS, in the assay on RXF-631 renal and in the assay on DMS 114 small cell lung was > 100 µM throughout.
On to `COc1ccc(-c2cn3ccsc3n2)cc1`, for which the TGI in the assay with HOP-18 NSCLC, in the assay on SNB-78 CNS and with DMS 114 small cell lung was > 100 µM each time.
With `O=c1cccccc1NCCCNc1cccccc1=O`, the TGI in the assay on SNB-78 CNS, in the assay with RXF-631 renal and in the assay on DMS 114 small cell lung was > 100 µM in each case.
As to `COc1ccc(C(C)c2cc3c(cc2OC)OCO3)cc1` (stereo not drawn), the TGI in the assay with BT-549 breast was > 100 µM; in the assay on DU-145 prostate, > 21.9 µM; in the assay on HOP-18 NSCLC it was > 100 µM; with SNB-78 CNS it was > 31.6 µM; in the assay on MDA-MB-435, 0.214 µM; in the assay on DMS 114 small cell lung it was 2.77 µM.
As for `COc1cc(OC(=O)c2c(O)cc(O)c(O)c2C)cc(C)c1C(=O)Oc1cc(C)c(C(=O)O)c(O)c1`, the TGI in the assay on HOP-18 NSCLC, in the assay with SNB-78 CNS, in the assay on RXF-631 renal and in the assay on DMS 114 small cell lung was > 100 µM each time.
With `N#Cc1nc(C2OC(COC(=O)c3ccccc3)C(OC(=O)c3ccccc3)C2OC(=O)c2ccccc2)oc1N` (stereo not drawn), the TGI in the assay on HOP-18 NSCLC, in the assay on SNB-78 CNS and in the assay with DMS 114 small cell lung was > 100 µM in each case.
As for `CC(=O)OC[C@]12CC[C@H]3[C@@H](C[C@H]4O[C@]45[C@@H](O)C=CC(=O)[C@]35C)[C@@H]1CC[C@@H]2[C@H](C)[C@H]1CC(C)=C(C)C(=O)O1`, the GI50 in the assay with HOP-18 NSCLC is 1.05 µM; in the assay on SNB-78 CNS it was 0.453 µM and 0.321 µM; in the assay on RXF-631 renal, 0.679 µM and 0.987 µM; with DMS 114 small cell lung it was 0.324 µM and 0.357 µM. Besides, the TGI is 2.42 µM with HOP-18 NSCLC; 1.84 µM with SNB-78 CNS; 2.74 µM in the assay on RXF-631 renal; 0.823 µM and 1.12 µM in the assay with DMS 114 small cell lung.
Take `CN/N=C(/CCN1CCCC1)CC(c1ccccc1)c1c(O)c2ccccc2oc1=O` (stereo not drawn): the TGI in the assay with BT-549 breast, with HS 578T breast, in the assay with DU-145 prostate, with HOP-18 NSCLC, with SNB-78 CNS and in the assay on MDA-N was > 100 µM each time. Besides, the TGI in the assay with MDA-MB-435, in the assay with RXF-631 renal and in the assay with DMS 114 small cell lung was > 100 µM in each case.
`CC(O)C(NC(=O)C(Cc1ccccc1)NC(=O)C(NC(=O)C(CCCCN)NC(=O)C(Cc1c[nH]c2ccccc12)NC(=O)C(Cc1ccc(O)cc1)NC(=O)C(Cc1ccc(Cl)cc1)NC(=O)C(N)Cc1ccccc1)C(C)O)C(N)=O` (stereo not drawn) (H-F[Phe(4-Cl)]YWKTFT-NH2; configuration not given here): the TGI in the assay on SNB-78 CNS worked out at 61 µM; in the assay with RXF-631 renal, 42.4 µM; with DMS 114 small cell lung it was 37.8 µM.
